According to patent US20240376121A1, “COMPOUNDS AND USES THEREOF” (Foghorn Therapeutics Inc., priority 2021, published 2024):

Legend:
[1] = target: T1, HiBit-BRM fusion protein (Homo sapiens, UniProt P51531); assay: HiBiT-BRM cell-based degradation assay (Nano-Glo HiBiT Lytic Detection); conditions: stable HeLa cell line expressing HiBiT-BRM, 24 h incubation; for BRM HiBit Degradation Maximum (%): top dose 30 μM; for DC50: read-out: BRM HiBit Degradation IC50
T1 construct: expressed in transfected cells
Method: (§1) Procedure: A stable HeLa cell line expressing HiBiT-BRM was generated. On day 0, 5000 cells were seeded in 40 μL of media into each well of 384-well cell culture plates. On day 1, cells were treated with 120 nL DMSO or 120 nL of 3-fold serially DMSO-diluted compounds (10 points in duplicate with 30 μM as final top dose). Subsequently plates were incubated for 24 h in a standard tissue culture incubator and equilibrated at room temperature for 15 minutes. Nano-Glo HiBiT Lytic Detection System (Promega N3050) reagent was freshly prepared and 20 ul was added to each well. Upon addition of this LgBit-containing reagent, the HiBiT and LgBiT proteins associate to form the luminescent NanoBiT luciferase. The plates were shaken for 10 minutes at room temperature and the bioluminescence read using an EnVision plate reader (PerkinElmer).
(§2) The degradation % was calculated using the following formula: % degradation=100%−100%×(LumSample−LumLC)/(LumHC−LumLC). DMSO treated cells are employed as High Control (HC) and 2 μM of a known BRM/BRG1 degrader standard treated cells are employed as Low Control (LC).

[2] = target: T2, HiBit-BRG1 fusion protein (Homo sapiens, UniProt P51532); assay: HiBiT-BRG1 cell-based degradation assay (Nano-Glo HiBiT Lytic Detection); conditions: stable HeLa cell line expressing HiBit-BRG1 and LgBit, 24 h incubation; for Dmax: top dose 30 μM, read-out: BRG1 HiBit Degradation Maximum (%); for DC50: read-out: BRMG1 HiBit Degradation IC50
T2 construct: expressed in transfected cells
Method: as §1
For measurement of BRG1 degradation, a stable HeLa cell line expressing HiBit-BRG1 and LgBit was generated. The same protocol as above was then followed.
as §2

T2 sequence (P51532 whole entry, the tested form may be a part): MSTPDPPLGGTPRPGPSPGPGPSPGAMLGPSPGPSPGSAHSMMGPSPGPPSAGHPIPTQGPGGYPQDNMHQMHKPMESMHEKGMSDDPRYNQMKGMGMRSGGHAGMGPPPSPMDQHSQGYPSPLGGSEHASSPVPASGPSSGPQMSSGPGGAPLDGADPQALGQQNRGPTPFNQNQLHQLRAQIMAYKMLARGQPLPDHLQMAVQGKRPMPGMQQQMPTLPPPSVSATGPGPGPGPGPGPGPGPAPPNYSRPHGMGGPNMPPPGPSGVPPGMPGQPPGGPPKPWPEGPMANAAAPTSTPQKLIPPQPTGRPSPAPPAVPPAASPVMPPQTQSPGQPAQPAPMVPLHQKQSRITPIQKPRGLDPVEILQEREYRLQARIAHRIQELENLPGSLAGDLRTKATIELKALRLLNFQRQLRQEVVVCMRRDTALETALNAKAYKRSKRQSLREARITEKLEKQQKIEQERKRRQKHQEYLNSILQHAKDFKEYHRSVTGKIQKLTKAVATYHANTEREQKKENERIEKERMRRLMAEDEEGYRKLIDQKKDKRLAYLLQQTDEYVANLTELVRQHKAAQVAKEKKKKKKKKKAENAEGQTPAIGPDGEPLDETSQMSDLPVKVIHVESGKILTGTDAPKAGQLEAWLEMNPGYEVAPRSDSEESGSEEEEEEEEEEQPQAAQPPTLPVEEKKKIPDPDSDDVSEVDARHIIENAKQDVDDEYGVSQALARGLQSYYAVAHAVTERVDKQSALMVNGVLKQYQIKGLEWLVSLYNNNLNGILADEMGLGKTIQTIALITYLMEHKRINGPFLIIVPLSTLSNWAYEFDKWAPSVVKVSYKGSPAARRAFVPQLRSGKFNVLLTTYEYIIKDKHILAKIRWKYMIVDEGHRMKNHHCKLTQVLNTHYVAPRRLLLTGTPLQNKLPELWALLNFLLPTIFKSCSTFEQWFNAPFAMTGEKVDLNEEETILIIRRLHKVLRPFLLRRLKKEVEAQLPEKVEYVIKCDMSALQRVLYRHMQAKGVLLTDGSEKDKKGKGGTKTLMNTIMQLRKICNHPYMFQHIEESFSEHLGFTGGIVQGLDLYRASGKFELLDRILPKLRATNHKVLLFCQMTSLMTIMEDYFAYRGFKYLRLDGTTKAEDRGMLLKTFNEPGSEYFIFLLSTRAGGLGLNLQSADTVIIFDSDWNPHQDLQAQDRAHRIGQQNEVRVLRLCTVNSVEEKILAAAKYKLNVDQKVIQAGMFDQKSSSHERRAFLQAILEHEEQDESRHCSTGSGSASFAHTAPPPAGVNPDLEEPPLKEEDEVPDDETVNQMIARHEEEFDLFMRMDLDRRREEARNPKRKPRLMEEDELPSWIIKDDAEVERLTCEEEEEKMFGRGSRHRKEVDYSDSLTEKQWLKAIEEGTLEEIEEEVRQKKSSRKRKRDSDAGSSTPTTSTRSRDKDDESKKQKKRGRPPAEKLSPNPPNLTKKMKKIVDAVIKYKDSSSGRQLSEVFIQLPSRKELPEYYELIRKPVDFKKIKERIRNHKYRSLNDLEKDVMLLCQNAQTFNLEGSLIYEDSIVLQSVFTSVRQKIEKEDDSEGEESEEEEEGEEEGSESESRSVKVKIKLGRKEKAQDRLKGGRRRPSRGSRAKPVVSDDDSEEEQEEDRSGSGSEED
T1 sequence (P51531 whole entry, the tested form may be a part): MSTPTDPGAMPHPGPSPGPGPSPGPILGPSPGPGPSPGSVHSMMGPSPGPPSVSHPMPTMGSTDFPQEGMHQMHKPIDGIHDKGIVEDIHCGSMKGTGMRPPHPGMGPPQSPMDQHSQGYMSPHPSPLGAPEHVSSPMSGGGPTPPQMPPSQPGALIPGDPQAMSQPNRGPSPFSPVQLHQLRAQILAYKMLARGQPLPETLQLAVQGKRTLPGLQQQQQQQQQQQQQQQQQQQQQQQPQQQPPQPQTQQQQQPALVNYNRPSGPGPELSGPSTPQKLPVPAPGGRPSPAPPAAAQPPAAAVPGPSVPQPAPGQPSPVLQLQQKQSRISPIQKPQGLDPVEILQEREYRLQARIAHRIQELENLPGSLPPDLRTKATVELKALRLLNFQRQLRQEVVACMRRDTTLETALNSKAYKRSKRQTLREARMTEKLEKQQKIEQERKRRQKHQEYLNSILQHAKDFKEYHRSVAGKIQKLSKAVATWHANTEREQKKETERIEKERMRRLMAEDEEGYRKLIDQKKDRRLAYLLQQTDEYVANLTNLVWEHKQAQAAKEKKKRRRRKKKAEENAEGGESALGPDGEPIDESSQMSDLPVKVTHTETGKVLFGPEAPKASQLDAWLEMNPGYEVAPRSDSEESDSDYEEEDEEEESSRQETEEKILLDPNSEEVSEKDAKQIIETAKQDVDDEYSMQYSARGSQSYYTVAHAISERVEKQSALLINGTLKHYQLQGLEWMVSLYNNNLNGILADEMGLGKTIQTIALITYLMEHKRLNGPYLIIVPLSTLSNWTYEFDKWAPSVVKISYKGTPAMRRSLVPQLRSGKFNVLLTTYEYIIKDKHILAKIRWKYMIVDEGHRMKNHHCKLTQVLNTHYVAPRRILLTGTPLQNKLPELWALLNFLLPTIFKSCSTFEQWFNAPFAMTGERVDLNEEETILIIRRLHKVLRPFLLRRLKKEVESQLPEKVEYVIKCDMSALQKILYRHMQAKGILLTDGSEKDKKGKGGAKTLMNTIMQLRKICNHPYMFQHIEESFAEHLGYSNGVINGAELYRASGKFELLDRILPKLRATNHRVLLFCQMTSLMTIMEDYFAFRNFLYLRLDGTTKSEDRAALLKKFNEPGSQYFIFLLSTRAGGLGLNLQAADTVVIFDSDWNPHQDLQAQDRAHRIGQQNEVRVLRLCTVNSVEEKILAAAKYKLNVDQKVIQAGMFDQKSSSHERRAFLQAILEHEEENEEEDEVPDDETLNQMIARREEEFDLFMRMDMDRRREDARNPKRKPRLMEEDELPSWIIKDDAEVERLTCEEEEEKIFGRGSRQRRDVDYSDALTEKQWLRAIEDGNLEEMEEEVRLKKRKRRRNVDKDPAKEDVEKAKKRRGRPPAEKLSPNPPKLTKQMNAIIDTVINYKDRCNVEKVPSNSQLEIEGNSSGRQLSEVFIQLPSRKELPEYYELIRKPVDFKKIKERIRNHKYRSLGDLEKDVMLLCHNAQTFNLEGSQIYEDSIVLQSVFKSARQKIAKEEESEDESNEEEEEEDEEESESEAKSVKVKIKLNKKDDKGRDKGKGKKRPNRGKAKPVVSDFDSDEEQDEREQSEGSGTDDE

Structure (SMILES)	BRM HiBit Degradation Maximum (%) [1]	DC50 [1] [µM]	Dmax [2] [%]	DC50 [2] [µM]
Cc1ncsc1-c1ccc([C@H](C)NC(=O)[C@@H]2C[C@@H](O)CN2C(=O)[C@H](c2cc(N3CCC(C(=O)N4CC(c5cc6cc(-c7ccccc7O)nnc6s5)C4)CC3)no2)C(C)C)cc1 [Compound 4, (2S,4R)-4-hydroxy-1-((S)-2-(3-(4-(3-(3-(2-hydroxyphenyl)thieno[2,3-c]pyridazin-6-yl)azetidine-1-carbonyl)piperidin-1-yl)isoxazol-5-yl)-3-methylbutanoyl)-N—((S)-1-(4-(4-methylthiazol-5-yl)phenyl)ethyl)pyrrolidine-2-carboxamide]	C (“C” indicates maximum degradation < 50%)	≥ 1	< 50	≥ 1
Cc1ncsc1-c1ccc([C@H](C)NC(=O)[C@@H]2C[C@@H](O)CN2C(=O)[C@@H](c2cc(N3CCC(C(=O)N4CC(c5cc6cc(-c7ccccc7O)nnc6s5)C4)CC3)no2)C(C)C)cc1 [Compound 5, (2S,4R)-4-hydroxy-1-((R)-2-(3-(4-(3-(3-(2-hydroxyphenyl)thieno[2,3-c]pyridazin-6-yl)azetidine-1-carbonyl)piperidin-1-yl)isoxazol-5-yl)-3-methylbutanoyl)-N—((S)-1-(4-(4-methylthiazol-5-yl)phenyl)ethyl)pyrrolidine-2-carboxamide]	A (“A” indicates maximum degradation ≥ 75%)	≥ 0.01	< 50	≥ 1
Cc1ncsc1-c1ccc([C@H](C)NC(=O)[C@@H]2C[C@@H](O)CN2C(=O)[C@@H](c2cc(N3CCN(CC(=O)N4CC(c5cc6cc(-c7ccccc7O)nnc6s5)C4)CC3)no2)C(C)C)cc1 [Compound 6, (2S,4R)-4-hydroxy-1-[(2R)-2-{3-[4-(2-{3-[3-(2-hydroxyphenyl)thieno[2,3-c]pyridazin-6-yl]azetidin-1-yl}-2-oxoethyl)piperazin-1-yl]-1,2-oxazol-5-yl}-3-methylbutanoyl]-N-[(1S)-1-[4-(4-methyl-1,3-thiazol-5-yl)phenyl]ethyl]pyrrolidine-2-carboxamide]	B (“B” indicates maximum degradation ≥ 50%)	≥ 0.1	< 50	≥ 1
Cc1ncsc1-c1ccc([C@H](C)NC(=O)[C@@H]2C[C@@H](O)CN2C(=O)[C@@H](c2cc(N3CCC(CN4CC(c5cc6cc(-c7ccccc7O)nnc6s5)C4)CC3)no2)C(C)C)cc1 [Compound 7]	A (“A” indicates maximum degradation ≥ 75%)	≥ 0.01	< 50	≥ 1
Cc1ncsc1-c1ccc([C@H](C)NC(=O)[C@@H]2C[C@@H](O)CN2C(=O)[C@@H](c2cc(OCCN3CCC(c4sc5nnc(-c6ccccc6O)cc5c4C)CC3)no2)C(C)C)cc1 [Compound 8, (2S,4R)-4-hydroxy-1-[(2R)-2-[3-(2-{4-[3-(2-hydroxyphenyl)-5-methylthieno[2,3-c]pyridazin-6-yl]piperidin-1-yl}ethoxy)-1,2-oxazol-5-yl]-3-methylbutanoyl]-N-[(1S)-1-[4-(4-methyl-1,3-thiazol-5-yl)phenyl]ethyl]pyrrolidine-2-carboxamide]	A (“A” indicates maximum degradation ≥ 75%)	< 0.01	< 50	≥ 1
Cc1ncsc1-c1ccc([C@H](C)NC(=O)[C@@H]2C[C@@H](O)CN2C(=O)[C@@H](c2cc(OCCN3CC(c4cc5nnc(-c6ccccc6O)cc5s4)C3)no2)C(C)C)cc1 [Compound 9, (2S,4R)-4-hydroxy-1-((R)-2-(3-(2-(3-(3-(2-hydroxyphenyl)thieno[3,2-c]pyridazin-6-yl)azetidin-1-yl)ethoxy)isoxazol-5-yl)-3-methylbutanoyl)-N—((S)-1-(4-(4-methylthiazol-5-yl)phenyl)ethyl)pyrrolidine-2-carboxamide]	A (“A” indicates maximum degradation ≥ 75%)	≥ 0.01	< 50	≥ 1
Cc1ncsc1-c1ccc([C@H](C)NC(=O)[C@@H]2C[C@@H](O)CN2C(=O)[C@@H](c2cc(N3CCC(C(=O)N4CC(c5sc6nnc(-c7ccccc7O)cc6c5C)C4)CC3)no2)C(C)C)cc1 [Compound 10]	A (“A” indicates maximum degradation ≥ 75%)	≥ 0.01	< 50	≥ 1
Cc1ncsc1-c1ccc([C@H](C)NC(=O)[C@@H]2C[C@@H](O)CN2C(=O)[C@@H](c2cc(N3CCC(C(=O)N4CCc5sc6nnc(-c7ccccc7O)cc6c5C4)CC3)no2)C(C)C)cc1 [Compound 11, (2S,4R)-4-hydroxy-1-((R)-2-(3-(4-(3-(2-hydroxyphenyl)-5,6,7,8-tetrahydropyrido[3′,4′:4,5]thieno[2,3-c]pyridazine-6-carbonyl)piperidin-1-yl)isoxazol-5-yl)-3-methylbutanoyl)-N—((S)-1-(4-(4-methylthiazol-5-yl)phenyl)ethyl)pyrrolidine-2-carboxamide]	A (“A” indicates maximum degradation ≥ 75%)	≥ 0.1	< 50	≥ 1
Cc1ncsc1-c1ccc([C@H](C)NC(=O)[C@@H]2C[C@@H](O)CN2C(=O)[C@H](c2cc(C3CCN(C(=O)CN4CC(c5cc6cc(-c7ccccc7O)nnc6s5)C4)CC3)no2)C(C)C)cc1 [Compound 12]	C (“C” indicates maximum degradation < 50%)	≥ 1	< 50	≥ 1
Cc1ncsc1-c1ccc([C@H](C)NC(=O)[C@@H]2C[C@@H](O)CN2C(=O)[C@@H](c2cc(C3CCN(C(=O)CN4CC(c5cc6cc(-c7ccccc7O)nnc6s5)C4)CC3)no2)C(C)C)cc1 [Compound 13]	B (“B” indicates maximum degradation ≥ 50%)	≥ 0.1	< 50	≥ 1
Cc1ncsc1-c1ccc([C@H](C)NC(=O)[C@@H]2C[C@@H](O)CN2C(=O)[C@@H](c2cc(OCCN3CC(c4c(C)sc5nnc(-c6ccccc6O)cc45)C3)no2)C(C)C)cc1 [Compound 14]	C (“C” indicates maximum degradation < 50%)	≥ 1	< 50	≥ 1
Cc1ncsc1-c1ccc([C@@H](C)NC(=O)[C@H]2C[C@H](O)CN2C(=O)[C@H](c2cc(OCCN3C[C@@H]4[C@H](C3)[C@H]4c3sc4nnc(-c5ccccc5O)cc4c3C)no2)C(C)C)cc1 [Compound 15]	A (“A” indicates maximum degradation ≥ 75%)	≥ 0.01	< 50	≥ 1
Cc1ncsc1-c1ccc([C@H](C)NC(=O)[C@@H]2C[C@@H](O)CN2C(=O)[C@@H](c2cc(OCCN3CC(Cc4sc5nnc(-c6ccccc6O)cc5c4C)C3)no2)C(C)C)cc1 [Compound 16]	A (“A” indicates maximum degradation ≥ 75%)	≥ 0.01	< 50	≥ 1
Cc1ncsc1-c1ccc(CNC(=O)[C@H]2C[C@H](O)CN2C(=O)[C@H](NC(=O)CCN2CC(c3sc4nnc(-c5ccccc5O)cc4c3C)C2)C(C)(C)C)cc1 [Compound 17]	C (“C” indicates maximum degradation < 50%)	≥ 1	< 50	≥ 1
Cc1ncsc1-c1ccc(CNC(=O)[C@@H]2C[C@@H](O)CN2C(=O)[C@@H](NC(=O)CCCCC(=O)N2CC(c3sc4nnc(-c5ccccc5O)cc4c3C)C2)C(C)(C)C)cc1 [Compound 18]	C (“C” indicates maximum degradation < 50%)	≥ 1	< 50	≥ 1
Cc1ncsc1-c1ccc(CNC(=O)[C@@H]2C[C@@H](O)CN2C(=O)[C@@H](NC(=O)CCCC(=O)N2CC(c3sc4nnc(-c5ccccc5O)cc4c3C)C2)C(C)(C)C)cc1 [Compound 19]	A (“A” indicates maximum degradation ≥ 75%)	≥ 1	≥ 75	≥ 1
Cc1ncsc1-c1ccc(CNC(=O)[C@H]2C[C@H](O)CN2C(=O)[C@H](NC(=O)CCC(=O)N2CC(c3sc4nnc(-c5ccccc5O)cc4c3C)C2)C(C)(C)C)cc1 [Compound 20]	C (“C” indicates maximum degradation < 50%)	≥ 1	< 50	≥ 1
Cc1ncsc1-c1ccc([C@H](C)NC(=O)[C@@H]2C[C@@H](O)CN2C(=O)[C@@H](c2cc(OCCN3C[C@@H]4[C@H](C3)[C@H]4c3c(C)sc4nnc(-c5ccccc5O)cc34)no2)C(C)C)cc1 [Compound 21]	C (“C” indicates maximum degradation < 50%)	≥ 1	< 50	≥ 1
Cc1ncsc1-c1ccc([C@H](C)NC(=O)[C@@H]2C[C@@H](O)CN2C(=O)[C@@H](c2cc(OCCN3CC(c4sc5nnc(-c6ccccc6O)cc5c4C)C3)no2)C(C)C)cc1 [Compound 22]	A (“A” indicates maximum degradation ≥ 75%)	≥ 0.01	≥ 50	≥ 0.01
